# In US8853406B2, “Substituted phenylenediamines as inhibitors of the interaction between MDM2 and P53” (Janssen Pharmaceutica NV, priority 2007, dated 2014):
# System: p53 in A2780 cells
# Assay: p53 ELISA in A2780 cells (capacity to preserve p53)
# Assay type: cell-based
# Settings: lowest dose giving at least 140% of the p53 value of the control, 16 hours
# Procedure: The capacity of the compounds to preserve p53 in A2780 cells was measured with the p53 enzyme linked immunosorbent assay. The p53 assay is a “sandwich” enzyme immunoassay employing two polyclonal antibodies. A polyclonal antibody, specific for the p53 protein, has been immobilized onto the surface of the plastic wells. Any p53 present in the sample to be assayed will bind to the capture antibody. The biotinylated detector polyclonal antibody also recognizes p53 protein, and will bind to any p53, which has been retained by the capture antibody. The detector antibody, in turn, is bond by horseradish peroxidase-conjugated streptavidin. The horseradish peroxidase catalyses the conversion of the chromogenic substrate o-phenylene diamine, the intensity of which is proportional to the amount of p53 protein bond to the plate. The colored reaction product is quantified using a spectrophotometer. Quantitation is achieved by the construction of a standard curve using known concentrations of purified recombinant HIS tagged p53 protein (see example C.1.).
# A2780 cells (ATCC) were cultivated in RPMI 1640 supplemented with 10% fetal calf serum (FCS), 2 mM L-glutamine and gentamycin at 37° C. in a humidified incubator with 5% CO2.
# A2780 cells were seeded at 20.000 cells per well in a 96 well plate, cultured for 24 hours and treated with compound for 16 hours at 37° C. in a humidified incubator. After incubation, the cells were washed once with phosphate-buffered saline and 30 μl, per well, low salt RIPA buffer (20 mM tris, pH7.0, 0.5 mM EDTA, 1% Nonidet P40, 0.5% DOC, 0.05% SDS, 1 mM PMSF, 1 μg/ml aprotinin and 0.5 μ/ml leupeptin) was added. Plates were placed on ice for 30 minutes to complete the lysis. p53 protein was detected in de lysates by using the sandwich ELISA, described below.
# High binding polystyrene EIA/RIA 96 well plates (Costar 9018) were coated with the capture antibody pAb1801 (Abcam ab28-100) at a concentration of 1 μg/ml in coating buffer (0.1 M NaHCO3 pH8.2), 50 μl per well. The antibody was allowed to adhere overnight at 4° C. Coated plates were washed once with phosphate-buffered saline (PBS)/0.05% Tween 20 and 300 μl of blocking buffer (PBS, 1% bovine serum albumins (BSA)) was added, for an incubation period of 2 hours at room temperature. Dilutions of purified recombinant HIS tagged p53 protein, ranging from 3-200 ng/ml, were made in blocking buffer and used as standards.
# Plates were washed twice with PBS/0.05% Tween 20 and blocking buffer or standards were added at 80 μl/well. To the standards, 20 μl of lysis buffer was added. The samples were added to the other wells at 20 μl lysate/well. After an overnight incubation at 4° C., plates were washed twice with PBS/0.05% Tween 20. Aliquots of 100 μl secondary polyclonal antibody p53(FL-393) (Tebubio, sc-6243) at a concentration of 1 μg/ml in blocking buffer were added to each well and allowed to adhere for 2 hours at room temperature. Plates were washed three times with PBS/0.05% Tween 20. Detection antibody anti-rabbit HRP (sc-2004, Tebubio) at 0.04 μg/ml in PBS/1% BSA was added and incubated for 1 hour at room temperature. Plates were washed three times with PBS/0.05% Tween 20 and 100 μl of substrate buffer was added (substrate buffer was prepared shortly before use by adding 1 tablet of 10 mg o-phenylene diamine (OPD) from Sigma and 125 μl 3% H2O2 to 25 ml OPD buffer: 35 mM citric acid, 66 mM Na2HPO4, pH5.6). After 5 to 10 minutes, colour reaction was stopped by adding 50 μl stop buffer (1 M H2SO4) per well. The absorbance at dual wavelengths of 490/655 nm was measured using a Biorad micro plate reader and the results were then analyzed.
# For each experiment, controls (containing no drug) and a blank incubation (containing no cells or drugs) were run in parallel. The blank value was subtracted from all control and sample values. For each sample, the value of p53 (in absorbance units) was expressed as the percentage of the value for p53 present in the control. […]
Compound,A2780 p53-elisa LAD (listed as drawing 35),A2780 p53-elisa LAD (listed as drawing 36)
"Cc1cc(Nc2ccnc3c2CCC3O)ccc1NCCc1c[nH]c2c(C)cccc12 (single isomer, unassigned) [Compound No. 1]",3.00E-08,–
"Cc1cc(Nc2ccnc3c2CCC3O)ccc1NCCc1c[nH]c2c(C)cccc12 (single isomer, unassigned) [Compound No. 2]",–,1.00E-07
